Measured values as given in PMC7721589, “Synthesis and structure-activity relationships for tetrahydroisoquinoline-based inhibitors of Mycobacterium tuberculosis” (Bioorganic & Medicinal Chemistry, 2020).
Values after ≈ are worked out from the molar mass of the structure shown. Read-outs that look alike come from different tables or passages of the source.

Experiments:
[1] = mouse, microsomes
[2] = tested on: Vero green monkey-derived epithelial kidney cells; assay: Mammalian cytotoxicity in Vero cells; format: cell-based; details: for IC50: Chlorocebus sabaeus
[3] = human, microsomes
[4] = molecular target: M. smegmatis ATP synthase (Mycolicibacterium smegmatis, UniProt A0R205+A0R206); assay: Inhibition of mycobacterial ATP synthase; format: biochemical; details: for IC50: read-out: M. smeg ATPsynth IC50, M. smegmatis ATP synthase; for selectivity over the human enzyme: M. smegmatis vs human mitochondrial ATP synthase
M.tb strain H37Rv [5] = assay: MIC against M.tb H37Rv under aerobic (replicating; MABA) conditions; format: cell-based, Mycobacterium tuberculosis; details: for MIC: Mycobacterium tuberculosis; for MIC MABA: MIC90, Table 1
M.tb strain H37Rv [6] = assay: MIC against M.tb H37Rv under non-replicating (LORA) conditions; details: for MIC LORA: MIC90, Table 1; for MIC (µg/mL) LORA: MIC90, Table 2
[7] = Microsomal clearance in mouse liver microsomes; also: unit not given here
[8] = Microsomal clearance in human liver microsomes; also: unit not given here
[9] = MIC90, Table 1, read-out: MIC MABA

| Molecule | IC50 ([2]; Table 1) | melting point | IC50 [4] | MIC (M.tb strain H37Rv [5]; [9]) | MIC LORA (M.tb strain H37Rv [6]) | also measured |
| --- | --- | --- | --- | --- | --- | --- |
| COc1ccc(N2CCN(C)CC2)c2c1CCN(C(=O)Nc1ccc(-c3ccc(Cl)cc3Cl)cn1)C2 [Compound 36, N-(5-(2,4-Dichlorophenyl)pyridin-2-yl)-5-methoxy-8-(4-methylpiperazin-1-yl)-3,4-dihydroisoquinoline-2(1H)-carboxamide] | > 32 µg/mL | 108 to 111 °C | 5.7 µM | 1.9 µg/mL (≈ 3.61 µM) | – | MLM Clint [1]: 584; HLM Clint [3]: 48 |
| Cc1cc(Cl)ccc1-c1ccc(NC(=O)N2CCc3c(F)ccc(N4CCN(C)CC4)c3C2)nc1 [Compound 42, N-(5-(4-Chloro-2-methylphenyl)pyridin-2-yl)-5-fluoro-8-(4-methylpiperazin-1-yl)-3,4-dihydroisoquinoline-2(1H)-carboxamide] | 12 µg/mL (≈ 24.3 µM) | 98 to 101 °C | 3.64 µM | 1.2 µg/mL (≈ 2.43 µM) | 5.4 µg/mL (≈ 10.9 µM) | MLM Clint [1]: 65; HLM Clint [3]: 50; selectivity over the human enzyme [4]: 9.4 fold |
| CCc1ccc(N2CCN(C)CC2)c2c1CCN(C(=O)Nc1ccc(-c3ccc(C(F)(F)F)cc3)cn1)C2 [Compound 27, 5-Ethyl-8-(4-methylpiperazin-1-yl)-N-(5-(4-(trifluoromethyl)phenyl)pyridin-2-yl)-3,4-dihydroisoquinoline-2(1H)-carboxamide] | 12 µg/mL (≈ 22.9 µM) | – | 4.2 µM | 1 µg/mL (≈ 1.91 µM) | 0.9 µg/mL (≈ 1.72 µM) | MLM Clint [1]: 810; HLM Clint [3]: 107 |
| Cc1ccc(N2CCN(C)CC2)c2c1CCN(C(=O)N1CCC(Oc3ccc(OC(F)(F)F)cc3)CC1)C2 [Compound 48, (5-Methyl-8-(4-methylpiperazin-1-yl)-3,4-dihydroisoquinolin-2(1H)-yl)(4-(4-(trifluoromethoxy)phenoxy)piperidin-1-yl)methanone] | 19 µg/mL (≈ 35.7 µM) | – | – | 6.4 µg/mL (≈ 12 µM) | 3.9 µg/mL (≈ 7.32 µM) | MLM Clint [1]: 40; HLM Clint [3]: 48 |
| Cc1ccc(N2CCN(C)CC2)c2c1CCN(C(=O)Nc1ccc(-c3cc(C(F)(F)F)cc(C(F)(F)F)c3)cn1)C2 [Compound 26, N-(5-(3,5-Bis(trifluoromethyl)phenyl)pyridin-2-yl)-5-methyl-8-(4-methylpiperazin-1-yl)-3,4-dihydroisoquinoline-2(1H)-carboxamide] | > 32 µg/mL | 114 to 117 °C | 24.2 µM | 3.1 µg/mL (≈ 5.37 µM) | 5.3 µg/mL (≈ 9.18 µM) | – |
| CN1CCN(c2cccc3c2CN(C(=O)Nc2ccc(-c4ccc(OC(F)(F)F)cc4)cn2)CC3)CC1 [Compound 23, 8-(4-Methylpiperazin-1-yl)-N-(5-(4-(trifluoromethoxy)phenyl)pyridin-2-yl)-3,4-dihydroisoquinoline-2(1H)-carboxamide] | 14 µg/mL (≈ 27.4 µM) | – | 12.1 µM | 3.6 µg/mL (≈ 7.04 µM) | 3.9 µg/mL (≈ 7.62 µM) | selectivity over the human enzyme [4]: > 80 fold |
| CN1CCN(c2cccc3c2CN(Cc2ccc(-c4ccc(Cl)cc4)cn2)CC3)CC1 [Compound 10, 2-((5-(4-Chlorophenyl)pyridin-2-yl)methyl)-8-(4-methylpiperazin-1-yl)-1,2,3,4-tetrahydroisoquinoline] | 16 µg/mL (≈ 37 µM) | – | 16.6 µM | 1.8 µg/mL (≈ 4.16 µM) | 16 µg/mL (≈ 37 µM) | MLM Clint [1]: 238; HLM Clint [3]: 121; selectivity over the human enzyme [4]: > 70 fold |
| Cc1cc(Cl)ccc1-c1ccc(CN2CCc3c(C)ccc(N4CCSCC4)c3C2)nc1 [Compound 54, 4-(2-((5-(4-Chloro-2-methylphenyl)pyridin-2-yl)methyl)-5-methyl-1,2,3,4-tetrahydroisoquinolin-8-yl)yhiomorpholine] | – | 133 to 135 °C | – | – | – | IC50 ([2]; Table 2): > 32 µg/mL; MIC (µg/mL) LORA (M.tb strain H37Rv [6]): 5.9 µg/mL (≈ 12.7 µM); MIC (M.tb strain H37Rv [5]; MIC90, Table 2, read-out: MIC (µg/mL) MABA): 3.4 µg/mL (≈ 7.33 µM) |
| COc1ccc(N2CCN(C)CC2)c2c1CCN(C(=O)N1CCC(Oc3ccccc3C(F)(F)F)CC1)C2 [Compound 51, (5-Methoxy-8-(4-methylpiperazin-1-yl)-3,4-dihydroisoquinolin-2(1H)-yl)(4-(2-(trifluoromethyl)phenoxy)piperidin-1-yl)methanone] | 24 µg/mL (≈ 45.1 µM) | 74 to 77 °C | – | 12 µg/mL (≈ 22.5 µM) | 10.0 µg/mL (≈ 18.8 µM) | – |
| Cc1ccc(N2CCN(C)CC2)c2c1CCN(C(=O)N1CCC(Oc3ccccc3C(F)(F)F)CC1)C2 [Compound 49, (5-Methyl-8-(4-methylpiperazin-1-yl)-3,4-dihydroisoquinolin-2(1H)-yl)(4-(2-(trifluoromethyl)phenoxy)piperidin-1-yl)methanone] | 11 µg/mL (≈ 21.3 µM) | – | 12 µM | 7.7 µg/mL (≈ 14.9 µM) | 7.3 µg/mL (≈ 14.1 µM) | – |
| Cc1cc(Cl)ccc1-c1ccc(C(=O)N2CCc3cccc(N4CCN(C)CC4)c3C2)nc1 [Compound 18, (5-(4-Chloro-2-methylphenyl)pyridin-2-yl)(8-(4-methylpiperazin-1-yl)-3,4-dihydroisoquinolin-2(1H)-yl)methanone] | 20 µg/mL (≈ 43.4 µM) | 132 to 135 °C | – | 11 µg/mL (≈ 23.9 µM) | 13 µg/mL (≈ 28.2 µM) | – |
| COc1ccc(N2CCN(C)CC2)c2c1CCN(C(=O)c1ccc(-c3ccc(Cl)cc3C)cn1)C2 [Compound 22, (5-(4-Chloro-2-methylphenyl)pyridin-2-yl)(5-methoxy-8-(4-methylpiperazin-1-yl)-3,4-dihydroisoquinolin-2(1H)-yl)methanone] | 22 µg/mL (≈ 44.8 µM) | 125 to 128 °C | – | 8.9 µg/mL (≈ 18.1 µM) | 8.0 µg/mL (≈ 16.3 µM) | – |
| CN1CCN(c2cccc3c2CN(C(=O)c2ccc(-c4ccc(Cl)cc4)cn2)CC3)CC1 [Compound 19, (5-(4-Chlorophenyl)pyridin-2-yl)(8-(4-methylpiperazin-1-yl)-3,4-dihydroisoquinolin-2(1H)-yl)methanone] | 27 µg/mL (≈ 60.4 µM) | 144 to 147 °C | – | 16 µg/mL (≈ 35.8 µM) | 20 µg/mL (≈ 44.7 µM) | – |
| 2-((5-(4-Chlorophenyl)pyridin-2-yl)methyl)-8-(4-methylpiperazin-1-yl)-5-methyl-1,2,3,4-tetrahydroisoquinoline [Compound 12] | – | – | – | – | 5.2 µg/mL | IC50 VERO ([2]; Table 1): 14 µg/mL; MLM Clint [7]: 239; MIC (µg/mL) LORA (M.tb strain H37Rv [6]): 5.2 µg/mL; MIC MABA (M.tb strain H37Rv [5]): 0.79 µg/mL; MIC (µg/mL) MABA (M.tb strain H37Rv [5]; MIC90, Table 2): 0.79 µg/mL; HLM Clint [8]: 92 |
| COc1ccc(N2CCN(C)CC2)c2c1CCN(C(=O)N1CCC(Oc3ccc(OC(F)(F)F)cc3)CC1)C2 [Compound 50, (5-Methoxy-8-(4-methylpiperazin-1-yl)-3,4-dihydroisoquinolin-2(1H)-yl)(4-(4-(trifluoromethoxy)phenoxy)piperidin-1-yl)methanone] | 15 µg/mL (≈ 27.3 µM) | 49 to 51 °C | – | 7.6 µg/mL (≈ 13.9 µM) | 7.0 µg/mL (≈ 12.8 µM) | – |
| COc1ccc(N2CCN(C)CC2)c2c1CCN(C(=O)Nc1ccc(-c3ccc(OC(F)(F)F)cc3)cn1)C2 [Compound 37, 5-Methoxy-8-(4-methylpiperazin-1-yl)-N-(5-(4-(trifluoromethoxy)phenyl)pyridin-2-yl)-3,4-dihydroisoquinoline-2(1H)-carboxamide] | 12 µg/mL (≈ 22.2 µM) | 196 to 198 °C | – | 3.1 µg/mL (≈ 5.72 µM) | 3.0 µg/mL (≈ 5.54 µM) | – |
| COc1ccc(N2CCN(C)CC2)c2c1CCN(C(=O)Nc1ccc(-c3ccc(Cl)cc3C)cn1)C2 [Compound 35, N-(5-(4-chloro-2-methylphenyl)pyridin-2-yl)-5-methoxy-8-(4-methylpiperazin-1-yl)-3,4-dihydroisoquinoline-2(1H)-carboxamide] | 12 µg/mL (≈ 23.7 µM) | 99 to 101 °C | 12.4 µM | 1.9 µg/mL (≈ 3.75 µM) | 3.1 µg/mL (≈ 6.13 µM) | – |
| COc1ccc(N2CCN(C)CC2)c2c1CCN(C(=O)c1ccc(-c3ccc(Cl)cc3)cn1)C2 [Compound 21, (5-(4-Chlorophenyl)pyridin-2-yl)(5-methoxy-8-(4-methylpiperazin-1-yl)-3,4-dihydroisoquinolin-2(1H)-yl)methanone] | 11 µg/mL (≈ 23.1 µM) | 124 to 127 °C | – | 13 µg/mL (≈ 27.3 µM) | 12 µg/mL (≈ 25.2 µM) | – |
| N-(5-(4-(tert-butyl)phenyl)pyridin-2-yl)-5-methyl-8-(4-methylpiperazin-1-yl)-3,4-dihydroisoquinoline-2(1H)-carboxamide [Compound 7] | – | – | – | – | 3.4 µg/mL | IC50 VERO ([2]; Table 1): 18 µg/mL; MLM Clint [7]: 56; MIC MABA (M.tb strain H37Rv [5]): 1.4 µg/mL; HLM Clint [8]: 41 |
| CSc1ccc(N2CCN(C)CC2)c2c1CCN(C(=O)Nc1ccc(-c3ccc(Cl)cc3C)cn1)C2 [Compound 40, N-(5-(4-Chloro-2-methylphenyl)pyridin-2-yl)-8-(4-methylpiperazin-1-yl)-5-(methylthio)-3,4-dihydroisoquinoline-2(1H)-carboxamide] | 13 µg/mL (≈ 24.9 µM) | 111 to 114 °C | – | 1.9 µg/mL (≈ 3.64 µM) | 2.0 µg/mL (≈ 3.83 µM) | – |
| COc1ccc(N2CCN(C)CC2)c2c1CCN(C(=O)Nc1ccc(-c3ccc(C(F)(F)F)cc3Cl)cn1)C2 [Compound 34, N-(5-(2-Chloro-4-(trifluoromethyl)phenyl)pyridin-2-yl)-5-methoxy-8-(4-methylpiperazin-1-yl)-3,4-dihydroisoquinoline-2(1H)-carboxamide] | 12 µg/mL (≈ 21.4 µM) | 61 to 64 °C | – | 3.6 µg/mL (≈ 6.43 µM) | 3.2 µg/mL (≈ 5.71 µM) | – |
